Laboratory results published in BindingDB's records for doi:10.7270/Q28G8J4C (Broad Institute, 2009).

Molecular target: T1, POsterior Segregation (Caenorhabditis elegans, UniProt G5EF15)
T1 sequence (G5EF15 whole entry): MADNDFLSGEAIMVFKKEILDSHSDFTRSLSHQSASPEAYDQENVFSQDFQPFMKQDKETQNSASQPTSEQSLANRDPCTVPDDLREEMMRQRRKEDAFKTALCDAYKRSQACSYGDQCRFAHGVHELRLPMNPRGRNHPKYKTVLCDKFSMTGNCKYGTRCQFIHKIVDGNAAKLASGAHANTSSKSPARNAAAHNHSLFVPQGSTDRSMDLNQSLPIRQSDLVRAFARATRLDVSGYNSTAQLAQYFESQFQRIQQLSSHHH
Test: disruptors of C. elegans POS-1 RNA interaction – biochemical, fluorescence polarization, dose response (AID 1964)

Structure (SMILES)	EC50
O=C1C=CC(/C=C/c2nc(O)c([N+](=O)[O-])c(=O)[nH]2)C=C1O (stereo not drawn) [SMR000524347]	250 µM
c1ccc(C2=NNC(c3ccccn3)N=N2)nc1 (stereo not drawn) [SMR000549436]	25.3 µM
O=C1NC(=O)N(c2ccc(F)cc2)C(=O)C1=Cc1c[nH]c2ccccc12 [SMR000556295]	52.2 µM
Cn1cc(C=C2C(=O)NC(=O)N(c3ccccc3)C2=O)c2ccccc21 [SMR000559087]	5.28 µM
O=C1N=C(N2C=CC(c3ccncc3)C=C2)C(=CN=NC(=O)c2ccccc2O)S1 [SMR000646350]	11.9 µM
CN(C)[C@@H]1C(=O)C(C(N)=O)C(=O)[C@@]2(O)C(=O)C3C(=O)c4c(O)cccc4[C@@](C)(O)C3C(O)C12 (stereo partly drawn) [SMR000875333]	54.1 µM
CCOC(=O)c1c(NC=C2C(=O)NC(=S)NC2=O)sc(C)c1C [ethyl 2-[[4,6-bis(oxidanylidene)-2-sulfanylidene-1,3-diazinan-5-yl]methylideneamino]-4,5-dimethyl-thiophene-3-carboxylate]	> 300 µM
COC(=O)c1[nH]c2cc(OC)c(OC)cc2c1CN=Nc1ccccc1 [methyl (3Z)-5,6-dimethoxy-3-[(2-phenylhydrazinyl)methylidene]indole-2-carboxylate]	20 µM
